Test results from patent US11013720B2, “Ganetespib-containing particle, pharmaceutical composition comprising the same, and their use in anticancer treatment” (NATIONAL CHIAO TUNG UNIVERSITY, priority 2019, dated 2021).
≈ marks a conversion by molar mass, not a printed value.

Tests used:
H1299 cell line = assay: In vitro anticancer effect against H1299 cell line (MTT assay); type: cell-based; conditions: Homo sapiens, NCI-H1299
Protocol: (§1) The A549 cells described in section 1 of Experimental Materials were placed in a 24-well culture plate at 1×10^4 cells/well, followed by cultivation in DMEM supplemented with 10% FBS at 37° C. and 5% CO2. The A549 cells in the wells were respectively treated with the free ganetespib test solutions and the CHC-ganetespib test solutions. Specifically, 200 μL of a respective test solution was added into a corresponding well containing the A549 cells. The A549 cells which were not treated with the free ganetespib test solutions and the CHC-ganetespib test solutions served as a normal control. After the treatment, cultivation was conducted for 48 hours at 37° C. and 5% CO2.
(§2) The respective resulting culture was subjected to washing twice with PBS after removal of the liquid in the well, and was subjected to determination of cell viability by virtue of the 3-(4,5-dimethylthiazol-2-yl)-2,5-diphenyltetrazoli-umbromide (MTT) assay. Specifically, a suitable amount of a MTT solution (having a MTT concentration of 1.9 mg/mL) was added to the respective culture, followed by incubation for 4 hours. The liquid in the well was removed, and dimethylsulfoxide (DMSO) was added into the well to dissolve formazan dye. Absorbance of the mixture in the well at 450 nm (0D450) was measured using a microplate reader (Tecan Sunrise, Switzerland). The cell viability (%) was calculated by substituting the absorbance into the following equation (2): D=(E/F)×100 (2) • D=cell viability (%) • E=OD450 of respective culture • F=OD450 of normal control
(§3) IC50 (half maximal inhibitory concentration) of the free ganetespib and the CHC-ganetespib particle agasint A549 cell line was determined based on the free ganetespib concentrations and the CHC-ganetespib particle concentrations, respectively, as well as the cell viability resulting from such concentrations.
The in vitro anticancer effect of the free ganetespib and the CHC-ganetespib particle agasint H1299 cell line was determined generally according to the method described in section B of this example, except that the H1299 cells described in section 1 of Experimental Materials were placed in a 24-well culture plate at 5×10^4 cells/well, followed by cultivation in RPMI medium supplemented with 10% FBS.

A549 cell line = assay: In vitro anticancer effect against A549 cell line (MTT assay); type: cell-based; conditions: Homo sapiens
Protocol: as §1, §2, §3

Q: `CC(C)c1cc(-c2nnc(O)n2-c2ccc3c(ccn3C)c2)c(O)cc1O` [Free ganetespib, 4-[5-hydroxy-4-(1-methyl-1H-indol-5-yl)-4H-1,2,4-triazol-3-yl]-6-(propan-2-yl)benzene-1,3-diol] was tested. Which viability at 0.0015625 µg/mL (H1299 cell line; H1299, 1.5625 ng/mL, 48 hours) did it give?
A: 93%

Q: And the viability at 0.003125 µg/mL (H1299 cell line; H1299, 3.125 ng/mL, 48 hours)?
A: 85%

Q: What about the viability at 0.00625 µg/mL (H1299 cell line; H1299, 6.25 ng/mL, 48 hours) of the same compound?
A: 55%

Q: What about the viability at 0.01 µg/mL (H1299 cell line; H1299, 10 ng/mL, 48 hours) of the same compound?
A: 48%

Q: What about the viability at 0.02 µg/mL (H1299 cell line; H1299, 20 ng/mL, 48 hours) of the same compound?
A: 23%

Q: What about the IC50 (H1299 cell line; H1299, 48 hours, MTT) of the same compound?
A: 10.3 ng/mL (≈ 0.0283 µM)

Q: And the viability at 0.0015625 µg/mL (A549 cell line; A549, 1.5625 ng/mL, 48 hours)?
A: 98%

Q: And the viability at 0.003125 µg/mL (A549 cell line; A549, 3.125 ng/mL, 48 hours)?
A: 70%

Q: What about the viability at 0.00625 µg/mL (A549 cell line; A549, 6.25 ng/mL, 48 hours) of the same compound?
A: 52%

Q: What about the viability at 0.0125 µg/mL (A549 cell line; A549, 12.5 ng/mL, 48 hours) of the same compound?
A: 40%

Q: And the viability at 0.025 µg/mL (A549 cell line; A549, 25 ng/mL, 48 hours)?
A: 30%

Q: And the IC50 (A549 cell line; A549, 48 hours, MTT)?
A: 8.8 ng/mL (≈ 0.0241 µM)
